Assay results from ChEMBL document CHEMBL1765070, “Structure-based design of potent and selective 3-phosphoinositide-dependent kinase-1 (PDK1) inhibitors” (J Med Chem, 2011).
pIC50: −log10 of the molar value.

Assays:
[1] = biological target: T1, 3-phosphoinositide-dependent protein kinase 1 (Homo sapiens, UniProt O15530); test: Inhibition of PDK1
T1 sequence (O15530 whole entry): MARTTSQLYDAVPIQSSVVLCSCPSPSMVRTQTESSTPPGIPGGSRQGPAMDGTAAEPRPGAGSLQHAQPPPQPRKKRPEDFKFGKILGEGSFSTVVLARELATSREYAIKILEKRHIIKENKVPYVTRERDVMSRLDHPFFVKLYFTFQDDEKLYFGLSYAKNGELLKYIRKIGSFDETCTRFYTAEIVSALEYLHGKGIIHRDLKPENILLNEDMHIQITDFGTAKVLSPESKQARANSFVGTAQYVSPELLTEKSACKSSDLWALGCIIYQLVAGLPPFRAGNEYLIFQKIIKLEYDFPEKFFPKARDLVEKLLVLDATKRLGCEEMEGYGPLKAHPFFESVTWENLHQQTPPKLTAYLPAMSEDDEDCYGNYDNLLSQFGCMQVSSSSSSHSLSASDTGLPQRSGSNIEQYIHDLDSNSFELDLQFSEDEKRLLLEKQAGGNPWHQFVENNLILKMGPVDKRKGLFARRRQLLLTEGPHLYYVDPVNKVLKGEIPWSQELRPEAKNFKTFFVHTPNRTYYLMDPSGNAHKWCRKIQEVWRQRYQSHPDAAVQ

Aurora kinase A = biological target: T2, Aurora kinase A (Homo sapiens, UniProt O14965); test: Inhibition of aurora A
T2 sequence (O14965 whole entry): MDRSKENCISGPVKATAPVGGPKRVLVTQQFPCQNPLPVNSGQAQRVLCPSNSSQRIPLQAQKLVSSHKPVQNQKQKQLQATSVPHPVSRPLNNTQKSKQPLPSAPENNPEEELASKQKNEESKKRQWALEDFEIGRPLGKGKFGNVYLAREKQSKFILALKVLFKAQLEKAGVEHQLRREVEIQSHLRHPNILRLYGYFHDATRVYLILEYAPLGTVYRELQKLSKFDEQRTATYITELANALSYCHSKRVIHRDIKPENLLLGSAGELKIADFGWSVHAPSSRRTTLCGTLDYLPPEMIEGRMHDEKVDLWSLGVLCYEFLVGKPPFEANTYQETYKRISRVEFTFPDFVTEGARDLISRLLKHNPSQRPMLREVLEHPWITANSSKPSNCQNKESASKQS

[2] = biological target: Rho-associated protein kinase 1 (Homo sapiens, UniProt Q13464); test: Inhibition of ROCK1
Aurora kinase B = Aurora kinase B (Homo sapiens, UniProt Q96GD4); test: Inhibition of aurora B
TGF-beta receptor type-1 = biological target: T3, TGF-beta receptor type-1 (Homo sapiens, UniProt P36897); test: Inhibition of ALK5; details: read-out: pIC50 (converted)
T3 sequence (P36897 whole entry): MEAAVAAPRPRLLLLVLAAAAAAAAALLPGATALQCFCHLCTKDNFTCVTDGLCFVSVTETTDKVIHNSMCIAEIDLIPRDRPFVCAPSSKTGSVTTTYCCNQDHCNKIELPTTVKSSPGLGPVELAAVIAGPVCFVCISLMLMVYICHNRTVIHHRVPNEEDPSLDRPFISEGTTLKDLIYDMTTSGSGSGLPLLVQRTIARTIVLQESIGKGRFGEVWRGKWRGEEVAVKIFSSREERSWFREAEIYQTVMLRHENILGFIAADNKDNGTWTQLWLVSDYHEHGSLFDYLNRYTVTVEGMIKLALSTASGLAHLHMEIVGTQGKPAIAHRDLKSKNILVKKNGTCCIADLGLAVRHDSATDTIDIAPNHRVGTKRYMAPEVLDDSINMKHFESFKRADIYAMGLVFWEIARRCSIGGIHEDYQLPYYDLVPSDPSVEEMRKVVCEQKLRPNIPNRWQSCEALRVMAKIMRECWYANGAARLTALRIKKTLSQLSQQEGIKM

[3] = biological target: T1, 3-phosphoinositide-dependent protein kinase 1; test: Inhibition of PDK1-mediated AKT phosphorylation at Thr308 residue in human PC3 cells by ELISA; type: cell-based, PC-3
[4] = biological target: T1, 3-phosphoinositide-dependent protein kinase 1; test: Inhibition of PDK1-mediated RSK phosphorylation at Ser221 residue in human PC3 cells by ELISA; type: cell-based, PC-3

Rho-associated protein kinase 1, sequence (Q13464 whole entry): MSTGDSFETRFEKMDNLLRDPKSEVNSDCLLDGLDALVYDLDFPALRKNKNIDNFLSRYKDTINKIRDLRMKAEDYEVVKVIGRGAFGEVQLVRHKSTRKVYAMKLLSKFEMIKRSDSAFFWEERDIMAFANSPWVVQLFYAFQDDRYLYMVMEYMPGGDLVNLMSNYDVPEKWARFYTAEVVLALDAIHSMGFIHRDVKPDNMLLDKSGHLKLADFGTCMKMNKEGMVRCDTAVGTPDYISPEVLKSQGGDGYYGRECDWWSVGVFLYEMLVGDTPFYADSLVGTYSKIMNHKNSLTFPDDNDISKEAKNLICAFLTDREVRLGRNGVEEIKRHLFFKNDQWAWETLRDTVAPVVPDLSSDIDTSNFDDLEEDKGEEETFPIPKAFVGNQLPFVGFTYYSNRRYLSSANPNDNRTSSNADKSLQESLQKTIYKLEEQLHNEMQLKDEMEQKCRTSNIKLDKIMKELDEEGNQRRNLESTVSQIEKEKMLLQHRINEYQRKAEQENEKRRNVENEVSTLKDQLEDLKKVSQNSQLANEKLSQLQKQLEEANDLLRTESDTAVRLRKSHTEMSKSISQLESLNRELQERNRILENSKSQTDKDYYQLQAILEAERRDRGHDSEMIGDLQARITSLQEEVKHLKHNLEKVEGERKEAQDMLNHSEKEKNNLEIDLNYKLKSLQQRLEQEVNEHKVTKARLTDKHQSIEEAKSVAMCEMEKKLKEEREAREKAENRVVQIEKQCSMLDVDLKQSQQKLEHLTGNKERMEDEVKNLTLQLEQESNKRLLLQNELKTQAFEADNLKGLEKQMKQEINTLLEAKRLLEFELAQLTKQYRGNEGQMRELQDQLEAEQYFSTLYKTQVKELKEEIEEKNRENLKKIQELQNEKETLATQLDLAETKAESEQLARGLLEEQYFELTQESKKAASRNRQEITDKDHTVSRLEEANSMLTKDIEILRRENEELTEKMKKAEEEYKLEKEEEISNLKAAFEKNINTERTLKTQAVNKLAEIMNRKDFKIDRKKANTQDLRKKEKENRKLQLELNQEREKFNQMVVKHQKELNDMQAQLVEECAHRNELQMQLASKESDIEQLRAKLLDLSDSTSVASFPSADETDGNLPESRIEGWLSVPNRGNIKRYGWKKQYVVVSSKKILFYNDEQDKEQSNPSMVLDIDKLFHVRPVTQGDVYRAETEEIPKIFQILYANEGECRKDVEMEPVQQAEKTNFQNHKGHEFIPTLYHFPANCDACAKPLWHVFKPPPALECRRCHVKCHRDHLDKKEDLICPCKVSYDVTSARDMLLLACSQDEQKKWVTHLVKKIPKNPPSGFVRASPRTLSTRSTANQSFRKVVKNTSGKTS
Aurora kinase B, sequence (Q96GD4 whole entry): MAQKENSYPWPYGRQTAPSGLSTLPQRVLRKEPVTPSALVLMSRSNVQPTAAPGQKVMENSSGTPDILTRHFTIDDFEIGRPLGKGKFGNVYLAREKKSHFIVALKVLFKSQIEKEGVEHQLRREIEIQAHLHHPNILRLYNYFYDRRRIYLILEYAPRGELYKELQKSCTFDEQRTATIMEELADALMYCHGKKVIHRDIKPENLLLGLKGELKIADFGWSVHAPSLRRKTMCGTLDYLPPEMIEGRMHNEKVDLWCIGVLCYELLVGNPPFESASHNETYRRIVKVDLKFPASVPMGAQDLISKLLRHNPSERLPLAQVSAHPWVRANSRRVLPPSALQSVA

Row | SMILES | pIC50 [1] | pIC50 (Aurora kinase A) | pIC50 [2] | pIC50 (Aurora kinase B) | IC50 (TGF-beta receptor type-1) [µM] | pIC50 [3] | pIC50 [4]
1 | Nc1nc(-c2ccc3c(N)n[nH]c3c2)cc(N2CCC[C@H](C(=O)Nc3ccccc3)C2)n1 | 7.50 | 5.10 | 5.70 | 5.90 | > 10 | – | –
2 | C[C@@H]1CC[C@H](C(=O)NC2CCCCC2)CN1c1cc(-c2ccc3c(N)n[nH]c3c2)nc(N)n1 | 8.10 | 5.30 | 6.20 | 6.00 | > 10 | 6.33 | 6.50
3 | C[C@@H]1CC[C@@H](C(=O)Nc2ccccc2)CN1c1cc(-c2ccc3c(N)n[nH]c3c2)nc(N)n1 (racemic) | – | – | < 5.00 | 5.70 | > 10 | – | –
4 | C[C@@H]1CC[C@H](C(=O)Nc2ccccc2)CN1c1cc(-c2ccc3c(N)[nH]nc3c2)nc(N)n1 | – | – | 6.70 | 6.00 | 6.31 | – | –
5 | C[C@H]1CC[C@@H](NC(=O)OC(C)(C)C)CN1c1cc(-c2ccc3c(N)[nH]nc3c2)nc(N)n1 | – | 6.30 | – | 6.00 | – | – | –
6 | CNc1nccc(-c2ccc3c(N)n[nH]c3c2)n1 | 6.00 | – | – | – | – | – | –
7 | Nc1nc(-c2ccc3c(N)n[nH]c3c2)cc(N2CCC[C@H](C(=O)NC3CCCC3)C2)n1 | 6.90 | < 5.00 | < 5.00 | < 5.00 | > 10 | – | –
8 | C[C@@H]1COCCN1c1cc(-c2ccc3c(N)[nH]nc3c2)nc(N)n1 | – | 4.90 | 4.80 | 4.60 | > 10 | – | –
9 | Nc1nc(-c2ccc3c(N)n[nH]c3c2)cc(N2CCC[C@H](C(=O)NC3CCCCC3)C2)n1 | 7.20 | < 5.00 | 5.30 | 5.40 | > 10 | – | –
10 | CN(C)c1nccc(-c2ccc3c(N)n[nH]c3c2)n1 | 4.70 | – | – | – | – | – | –
11 | CC(C)(C)OC(=O)N[C@@H]1CCCN(c2cc(-c3ccc4c(N)n[nH]c4c3)nc(N)n2)C1 | 7.60 | 5.80 | < 5.00 | 5.30 | > 10 | – | –
12 | COc1nccc(-c2ccc3c(N)n[nH]c3c2)n1 | 4.90 | – | – | – | – | – | –
13 | Nc1nc(-c2ccc3c(N)n[nH]c3c2)cc(N2CCCC(NC(=O)c3ccccc3)C2)n1 (racemic) | 7.20 | 5.90 | < 5.00 | 7.60 | > 10 | – | –
14 | C[C@H]1COCCN1c1cc(-c2ccc3c(N)n[nH]c3c2)nc(N)n1 | – | < 5.00 | 4.80 | 4.60 | > 10 | – | –
15 | CNc1cc(-c2ccc3c(N)n[nH]c3c2)nc(N)n1 | 7.10 | 5.50 | 5.10 | 4.90 | 0.398 | – | –
16 | Nc1nc(-c2ccccc2)cc(-c2ccc3c(N)n[nH]c3c2)n1 | 6.70 | 5.80 | < 5.00 | 5.70 | 3.16 | – | –
17 | CC(C)(C)OC(=O)NC1CCCN(c2cc(-c3ccc4c(N)n[nH]c4c3)nc(N)n2)C1 (racemic) | 7.30 | 5.90 | < 5.00 | 6.40 | > 10 | – | –
18 | Nc1nc(-c2ccc3c(N)n[nH]c3c2)cc(N2CCCCC2)n1 | 6.60 | < 5.00 | < 5.00 | < 5.00 | > 10 | – | –
19 | Cc1cc(-c2ccc3c(N)n[nH]c3c2)nc(N)n1 | – | 5.40 | 5.40 | 4.90 | 7.94 | – | –
20 | Nc1nccc(-c2ccc3c(N)n[nH]c3c2)n1 | 6.40 | 6.40 | 5.80 | – | 1.58 | – | –
21 | Nc1nc(-c2ccc3c(N)[nH]nc3c2)cc(N2CCOCC2)n1 | – | < 5.00 | < 5.00 | < 5.00 | > 10 | – | –

Row | SMILES | pIC50 [1] | pIC50 (Aurora kinase A) | pIC50 [2] | pIC50 (Aurora kinase B) | IC50 (TGF-beta receptor type-1) [µM] | pIC50 [3] | pIC50 [4]
22 | C[C@@H]1C[C@@H](N(C)C(=O)CC(C)(C)C)CN(c2cc(-c3ccc4c(N)n[nH]c4c3)nc(N)n2)C1 | 9.20 | 7.20 | < 5.00 | 6.70 | > 10 | 7.66 | 6.94
23 | C[C@@H]1CO[C@H](C(=O)Nc2ccccc2)CN1c1cc(-c2ccc3c(N)n[nH]c3c2)nc(N)n1 | – | 6.70 | 6.80 | 6.50 | > 10 | – | –
24 | Nc1nc(-c2ccc3c(N)n[nH]c3c2)cc(N2CCO[C@@H](C(=O)Nc3ccccc3)C2)n1 | 6.00 | < 5.00 | < 5.00 | < 5.00 | > 10 | – | –
25 | Nc1nc(-c2ccc3c(N)n[nH]c3c2)cc(N2CCCC2)n1 | 6.60 | < 5.00 | < 5.00 | < 5.00 | > 10 | – | –
26 | Nc1nc(-c2ccc3c(N)n[nH]c3c2)cc(N2CCC[C@@H](C(=O)Nc3ccccc3)C2)n1 | 6.90 | 5.10 | 5.50 | 5.80 | > 10 | – | –
27 | Nc1nc(-c2ccc3c(N)[nH]nc3c2)cc(N2CCO[C@H](C(=O)Nc3ccccc3)C2)n1 | – | 5.90 | 6.10 | 5.50 | > 10 | – | –
28 | C[C@H]1CC[C@@H](NC(=O)OC(C)(C)C)CN1c1cc(-c2ccc3c(N)[nH]nc3c2)nc(N)n1 (racemic) | – | 6.10 | < 5.00 | 6.80 | > 10 | – | –
29 | COc1cc(-c2ccc3c(N)n[nH]c3c2)nc(N)n1 | 6.60 | 5.20 | 5.30 | 5.10 | 3.16 | – | –
30 | CN(C)c1cc(-c2ccc3c(N)n[nH]c3c2)nc(N)n1 | 6.30 | < 5.00 | < 5.00 | < 5.00 | 5.01 | – | –
31 | Nc1nc(Nc2ccccc2)cc(-c2ccc3c(N)n[nH]c3c2)n1 | 7.70 | 6.70 | 5.60 | 5.50 | 0.0251 | – | –
32 | CC(C)[C@@H]1COCCN1c1cc(-c2ccc3c(N)n[nH]c3c2)nc(N)n1 | 6.70 | 4.90 | 4.80 | 5.10 | > 10 | – | –
33 | C[C@@H]1CC[C@H](NC(=O)OC(C)(C)C)CN1c1cc(-c2ccc3c(N)n[nH]c3c2)nc(N)n1 | – | 5.70 | < 5.00 | 7.30 | > 10 | – | –
34 | CC(C)c1cc(-c2ccc3c(N)n[nH]c3c2)nc(N)n1 | 6.60 | 5.50 | < 5.00 | 5.10 | 2 | – | –
35 | C[C@H]1CC[C@@H](C(=O)Nc2ccccc2)CN1c1cc(-c2ccc3c(N)n[nH]c3c2)nc(N)n1 | – | – | – | 5.30 | > 10 | – | –
36 | CC(C)Nc1cc(-c2ccc3c(N)n[nH]c3c2)nc(N)n1 | 6.90 | 5.70 | < 5.00 | 4.80 | 0.501 | – | –
37 | CCNc1cc(-c2ccc3c(N)[nH]nc3c2)nc(N)n1 | – | 5.60 | < 5.00 | 5.00 | 0.501 | – | –
38 | CC[C@@H]1COCCN1c1cc(-c2ccc3c(N)n[nH]c3c2)nc(N)n1 | – | 5.30 | < 5.00 | < 5.00 | > 10 | – | –
39 | Nc1nc(NC2CCCC2)cc(-c2ccc3c(N)n[nH]c3c2)n1 | – | 5.60 | 5.20 | 5.10 | 0.398 | – | –
40 | CCNc1nccc(-c2ccc3c(N)n[nH]c3c2)n1 | 5.10 | – | – | – | – | – | –
41 | CC(C)(C)OC(=O)N[C@H]1CCCN(c2cc(-c3ccc4c(N)n[nH]c4c3)nc(N)n2)C1 | 6.00 | 5.20 | < 5.00 | 6.50 | > 10 | – | –
42 | C[C@@H]1CCCCN1c1cc(-c2ccc3c(N)n[nH]c3c2)nc(N)n1 | 6.90 | < 5.00 | < 5.00 | 4.60 | 7.94 | – | –
